The inhibition is the share of the control response that was lost under treatment. Broadly, the IC50 is the midpoint of a concentration-inhibition curve. For orientation: melting point means the temperature, or range, at which the solid turns liquid.

In brackets after ≈: the same amount, converted by molar mass. Like-named read-outs stand apart in the source and are kept apart here.

Series [1] concerns HeLa (cervical cancer) cell line. Kind of series: Cytotoxicity MTT assay, HeLa cells. The conditions noted are these: Homo sapiens, 48 h. It is filed as cell-based. As to the method: (§1) MCF-7 (breast cancer), NCI-H460 (lung cancer), HeLa (cervical cancer) cell lines, and BJ (normal human fibroblast) cell lines were collected from cell culture biobank (PCMD, ICCBS). DMEM medium was used for MCF-7, HeLa, and BJ, and RPMI (ATCC modified medium) was used for NCI-H460. The media was supplemented with 10% FBS, 100 IU mL^−1 of penicillin, and 100 μg mL^−1 of streptomycin, and kept at 37 °C in a 5% CO2 incubator. The inhibition was investigated by MTT assay. Briefly, 100 μL per well of cell solutions (10 × 10^4 cells per mL MCF-7 cells, 5 × 10^4 cells per mL NCI-H460 cells, 6 × 10^4 cells per mL HeLa cells, or 5 × 10^4 cells per mL BJ cells), were added into 96-well plate and incubated for 24 h at 37 °C, before treatment with 6.25–50 μM of compounds or positive control doxorubicin for 48 h. After this, 20 μL of MTT (5 mg mL^−1) was added to each well and then incubated for 4 h at 37 °C. Then 100 μL DMSO was added to each well to dissolve the purple formazan crystal. The absorbance was analyzed at 570 nm (MCF-7, NCI-H460, and HeLa) or 550 nm (BJ) using an ELISA plate reader.
On the technique in general: Formazan colour is commonly taken as a measure of viable cells.

For series [2], the system named is nitric oxide (NO) production. Kind of series: Nitric oxide (NO) production inhibitory assay (Griess method, LPS-stimulated J774.2 macrophages). It is filed as cell-based, mouse. As to the method: The J774.2 cell line (mouse macrophage) was obtained from (European Collection of Cell Cultures, Salisbury, UK). It was cultivated in […] flasks (IWAKI, Asahi Techno Glass, Shizuoka, Japan), containing DMEM (Sigma-Aldrich, Steinheim, Germany) and fetal bovine serum (FBS) (10%) (GIBCO, New York, NY, USA) and 1% streptomycin/penicillin, and were incubated in 5% CO2 at 37 °C. Fully-grown cells (10^6 cells per mL) were transferred into the 96-well plate, and NO synthase was added into the wells by E. coli (30 μg mL^−1) lipopolysaccharide (LPS) (DIFCO Laboratories, Detroit, MI, USA) for NO production. Samples were tested with different concentrations (1, 10, and 25 μg mL^−1), and placed in CO2 (5%) at 37 °C. N^G monomethyl L-arginine acetate (LNMMA) was used as a standard NO inhibitor. Griess method was used to analyze the accumulation of nitrite in the cells.[35] IC50 values were calculated by a Microsoft Excel-based formula.
(Nitrite, measured by Griess reagent, commonly stands in for NO production.)

Series [3] concerns MCF-7 (breast cancer) cell line. Briefly: Cytotoxicity MTT assay, MCF-7 cells. As to conditions: Homo sapiens, MCF7, 48 h. It is filed as cell-based. As to the method: as §1
Series [4] relates to NCI-H460 (lung cancer) cell line. Briefly: Cytotoxicity MTT assay, NCI-H460 cells. It is filed as cell-based. The conditions noted are these: Homo sapiens, 48 h. As to the method:
as §1

A short description of series [5]: Cytotoxicity MTT assay, BJ cells. It is filed as cell-based. As to conditions: human, BJ normal human fibroblast cells, μM converted to μg mL^−1, read-out: IC50 cytotoxicity against human normal cell line (BJ). As to the method: as §1
Where [6] appears, read: J774.2 mouse macrophages, LPS 30 μg mL^−1, Griess method, read-out: IC50 against nitric oxide (NO) production.

`CC1CC2(C)C(CCC3C2CCC2(C)C3CCC2(C)O)CC1=O` (centres unmarked) [Compound 1, methasterone]: the inhibition at 50 µM in series [1], in series [3] and in series [4] was < 50% throughout. Moreover, the half-maximal inhibitory concentration (IC50) in series [2] (setting [6]) was 23.9 ± 0.2 µg/mL (≈ 75 µM). The IC50 at 48 h in series [5] was 8.01 ± 0.52 µg/mL (≈ 25.1 µM).

Compound `C[C@@H]1C[C@@]2(C)[C@H](CC1=O)[C@H](O)[C@H](O)[C@@H]1[C@@H]2CC[C@@]2(C)[C@H]1CC[C@]2(C)O` [Compound 2, 6β,7β,17β-Trihydroxy-2α,17α-dimethyl-5α-androstane-3-one] gave a melting point of 139 to 141 °C. Further, in series [1], the inhibition at 50 µM was < 50%. The IC50 in series [2] (setting [6]) amounted to 38.1 ± 0.5 µg/mL (≈ 109 µM). Moreover, the inhibition at 50 µM in series [3] is < 50%. Further, the inhibition at 50 µM in series [4] is < 50%.

Turning to `CC1CC2(C)C(CC1=O)C(O)CC1C3CCC(C)(O)C3(C)CCC12O` (stereo not drawn) [Compound 7, 6β,9α,17β-Trihydroxy-2α,17α-dimethyl-5α-androstane-3-one], the melting point lay within 139 to 141 °C. Further, in series [1], the inhibition at 50 µM is < 50%. Further, the IC50 in series [2] (Mus musculus, J774.2, read-out: IC50 against nitric oxide (NO) production) came out at 40.2 ± 3.3 µg/mL (≈ 115 µM). In addition, the inhibition at 50 µM in series [3] is < 50%. For the same compound, the inhibition at 50 µM in series [4] was < 50%.

Turning to `CC(=O)O.CNC(=N)NCCC[C@H](N)C(=O)O` [LNMMA, N^G monomethyl L-arginine acetate, reference compound], the “IC50 against nitric oxide (NO) production” value in series [2] (J774.2 mouse macrophages, LPS 30 μg mL^−1, Griess method) was 24.2 ± 0.8 µg/mL.

As to `COc1cccc2c1C(=O)c1c(O)c3c(c(O)c1C2=O)C[C@@](O)(C(=O)CO)C[C@@H]3O[C@H]1C[C@H](N)[C@H](O)[C@H](C)O1` [doxorubicin, reference compound], the IC50 in series [4] (read-out: IC50 against NCI-H460) worked out at 0.76 ± 0.05 µg/mL (≈ 1.4 µM).

Source of the values: publication PMC8985176, “Structural transformation of methasterone with Cunninghamella blakesleeana and Macrophomina phaseolina” (RSC Advances, 2022).
